Assay results published in patent publication US20030232986A1, “Inhibitors of caspases” (Vertex Pharmaceuticals Incorporated, priority 1998, published 2003).
Read-outs that look alike come from different tables or passages of the source. Where a SMILES comes first, the peptide text is derived from it. The star is where a group is joined. Bz = O=C(c1ccccc1)*

Tests used:
[1] = target: T1, Caspase-1 (Homo sapiens, UniProt P29466); test: Caspase-1 enzyme inhibition (Ki); type: biochemical
T1 sequence (P29466 120-297 limits assumed): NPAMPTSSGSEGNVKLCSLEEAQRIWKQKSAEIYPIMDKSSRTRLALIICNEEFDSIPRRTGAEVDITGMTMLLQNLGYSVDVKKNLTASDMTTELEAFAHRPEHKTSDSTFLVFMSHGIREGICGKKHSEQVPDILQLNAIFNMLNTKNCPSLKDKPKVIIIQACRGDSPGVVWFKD
T1 sequence (P29466 317-404 limits assumed): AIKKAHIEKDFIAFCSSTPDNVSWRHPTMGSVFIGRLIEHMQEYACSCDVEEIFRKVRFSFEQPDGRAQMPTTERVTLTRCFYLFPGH
How it was run: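 Ki obtained by fitting rate versus inhibitor concentration to the Morrison tight-binding equation for competitive inhibitors, with pNA release read at 405 nm at 37 °C. Substrate Suc-YVAD-pNA (80 μM final) added after 15 min enzyme–inhibitor preincubation in Tris pH 7.5 buffer with DTT and CHAPS.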

[2] = target: T2, Caspase-3 (Homo sapiens, UniProt P42574); test: Caspase-3 enzyme inhibition (Ki); type: biochemical; details: substrate Ac-DEVD-pNA 60 μM, 8% glycerol in buffer, 37° C.
T2 sequence (P42574 29-175 limits assumed): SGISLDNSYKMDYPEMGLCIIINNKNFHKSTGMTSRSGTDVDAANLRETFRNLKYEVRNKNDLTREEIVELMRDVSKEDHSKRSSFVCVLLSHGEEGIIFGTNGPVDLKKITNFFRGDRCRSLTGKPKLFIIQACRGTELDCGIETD
T2 sequence (P42574 176-277 limits assumed): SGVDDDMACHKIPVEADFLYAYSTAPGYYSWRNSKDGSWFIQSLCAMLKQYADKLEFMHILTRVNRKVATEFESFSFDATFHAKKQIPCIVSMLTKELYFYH
Experimental: (§1) Ki values for test compounds with the various caspases were obtained by the method of Margolin et al. (J. Biol. Chem., 272 pp. 7223-7228 (1997)). Assays were performed in 10 mM Tris (Sigma Corp, St Louis Mo.) pH 7.5, 1 mM Dithiothreitol (DTT, Research Organic INC, Cleveland, Ohio) and 0.1% CHAPS (Pierce, Rockford Ill.) at 37° C. For caspase-3, a solution of 8% glycerol was added to the assay buffer to improve enzyme stability. A 65 μL aliquot of the assay buffer and 5 μL aliquot of the appropriate dilutions of inhibitor in DMSO where pipetted into a 96 well plate, treated with 10 μL of caspase, then diluted in assay buffer (0.5-40 nM active protein by active site titration). A control containing DMSO but no compound was included for each determination. The plates were then incubated for 15 minutes at 37° C., before addition of the appropriate substrate (20 μL, final concentration 1-4×KM, final assay volume 100 μL) to initiate the reaction. Reaction rates were measured at 37° C. either by following the time dependant increase in absorbance at 405 nm (for the pNA substrates) or in fluorescence (Ex 390, Em 460) (for the AMC substrates). The rates obtained were plotted against inhibitor concentration and the data fit to the Morrison tight-binding equation for competitive inhibitors (Morrison, J. F., Biochem. Biophys. Acta, 185 pp. 269-286 (1969)). The substrates used for the individual assays were as follows:
Caspase-3 Ac-DEVD-pNA (Bachem, King of Prussia, Pa.) (final concentration in assay, 60 μM)

[3] = target: Caspase-8 (Homo sapiens, UniProt Q14790); test: Caspase-8 enzyme inhibition (Ki); type: biochemical; details: substrate Ac-DEVD-pNA 80 μM, 37° C.
Chain of Caspase-8 (Q14790 217-374 limits assumed): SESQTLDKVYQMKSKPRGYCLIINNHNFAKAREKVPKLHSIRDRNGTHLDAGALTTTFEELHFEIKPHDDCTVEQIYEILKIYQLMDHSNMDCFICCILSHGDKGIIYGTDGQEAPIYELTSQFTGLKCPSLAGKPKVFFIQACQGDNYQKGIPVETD
Chain of Caspase-8 (Q14790 385-479 limits assumed): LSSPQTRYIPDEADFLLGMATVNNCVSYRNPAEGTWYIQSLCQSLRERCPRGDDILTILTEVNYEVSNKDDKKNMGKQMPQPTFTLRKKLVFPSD
Experimental: as §1
Caspase-8 Ac-DEVD-pNA (Bachem, King of Prussia, Pa.) (final concentration in assay 80 μM).

[4] = In vivo rat clearance assay (i.v.); details: plasma, iv, i.v. via jugular vein
Experimental: Cannulations of the jugular and carotid vessels of rats under anesthesia are performed one day prior to the pharmacokinetic study. M. J. Free, R. A. Jaffee; ‘Cannulation techniques for the collection blood and other bodily fluids’; in: Animal Models; p. 480-495; N. J. Alexander, Ed.; Academic Press; (1978). Drug (10 mg/mL) is administered via the jugular vein in a vehicle usually consisting of: propylene glycol/saline, containing 100 mM sodium bicarbonate in a 1:1 ratio. Animals are dosed with 10-20 mg drug/kg and blood samples are drawn at 0, 2, 5, 7, 10, 15, 20, 30, 60, and 90 minutes from an indwelling carotid catheter. The blood is centrifuged to plasma and stored at −20° C. until analysis. Pharmacokinetic analysis of data is performed by non-linear regression using standard software such as RStrip (MicroMath Software, UT) and/or Pcnonlin (SCI Software, NC) to obtain clearance values.
Rat plasma is extracted with an equal volume of acetonitrile (containing 0.1% TFA). Samples are then centrifuged at approximately 1,000×g and the supernatant analyzed by gradient HPLC. A typical assay procedure is described below.
200 μL of plasma is precipitated with 200 μL of 0.1% trifluoroacetic acid (TFA) in acetonitrile and 10 μL of a 50% aqueous zinc chloride solution, vortexed then centrifuged at ^˜1000×g and the supernatant collected and analyzed by HPLC.
A standard curve is run at 20, 10, 5, 2 and 1 μg/mL concentrations.

[5] = substrate Suc-YVAD-pNA 80 μM, 37° C., pH 7.5

Structure (SMILES) | Ki [1, 5] [µM] | Ki [1] [µM] | Ki [2] [µM] | Ki [3] [µM] | clearance [4] [L/h/kg]
CC(C)[C@H](NC(=O)c1nccc2ccccc12)C(=O)N1CCC[C@H]1C(=O)N[C@H](C=O)CC(=O)O [Example 5c] | < 0.01 | – | – | – | –
CC(C)[C@H](NC(=O)c1cccc2c1-c1ccccc1C2=O)C(=O)N1CCC[C@H]1C(=O)N[C@H](C=O)CC(=O)O [Example 5k] | < 0.01 | < 0.01 | – | – | –
CC(C)[C@H](NC(=O)c1cc(Cl)c(O)c(Cl)c1)C(=O)N1CCC[C@H]1C(=O)N[C@H](C=O)CC(=O)O [Example 5m] | < 0.01 | < 0.01 | – | – | –
Cc1cc(C(=O)N[C@@H](C)C(=O)N2CCC[C@H]2C(=O)N[C@H](C=O)CC(=O)O)cc(C)c1O [Example 7c] | < 0.01 | – | > 1 | > 1 | –
C[C@H](NC(=O)c1nccc2ccccc12)C(=O)N1CCC[C@H]1C(=O)N[C@H](C=O)CC(=O)O [Example 7d] | < 0.01 | – | > 1 | 0.01 to 1 | < 3
COc1ccc(C(=O)N[C@@H](C)C(=O)N2CCC[C@H]2C(=O)N[C@H](C=O)CC(=O)O)cc1 [Example 7f] | 0.01 to 1 | – | > 1 | > 1 | 3 to 4.8
COc1ccc(C(=O)NC(C(=O)N2CCCC2C(=O)NC(C=O)CC(=O)O)C(C)C)cc1 (stereo not drawn) [Example 57, 3-({1-[2-(4-Methoxy-benzoylamino)-3-methyl-butyryl]-pyrrolidine-2-carbonyl}-amino)-4-oxo-butyric acid] | < 0.01 | – | – | – | –
Cc1cc(C(=O)N[C@H](C(=O)N2CCCC2C(=O)N[C@H](C=O)CC(=O)O)C(C)C)cc(C)c1O (stereo partly drawn) [Example 65, 3-({l-[2-(4-Hydroxy-3,5-dimethyl-benzoyiamino)-3-methyl-butyryl]-pyrrolidine-2-carbonyl}-amino)-4-oxo-butyric acid] | < 0.01 | – | – | – | > 4.8
COc1ccc(C(=O)NC(C(=O)N2CCCC2C(=O)NC(C=O)CC(=O)O)C(C)(C)C)cc1 (stereo not drawn) [Example 69, 3-({1-[2-(4-Methoxy-benzoylamino)-3,3-dimethyl-butyryl]-pyrrolidine-2-carbonyl}-amino)-4-oxo-butyric acid] | < 0.01 | – | > 1 | 0.01 to 1 | –

Results, then the molecule that gave them:

Ki [1, 5] [µM] | Ki [1] [µM] | Ki [2] [µM] | Ki [3] [µM] | clearance [4] [L/h/kg] | Structure (SMILES)
0.01 to 1 | – | – | – | – | COCC(=O)N1CCN(C(=O)[C@H](C)NC(=O)c2ccc(N)c(Cl)c2)[C@H](C(=O)N[C@H](C=O)CC(=O)O)C1 [Example 18f]
< 0.01 | – | – | – | – | O=C[C@H](CC(=O)O)NC(=O)[C@@H]1CCCN1C(=O)[C@H](Cc1cccnc1)NC(=O)c1nccc2ccccc12 [Example 20f]
< 0.01 | – | – | – | – | CSC[C@H](NC(=O)c1nccc2ccccc12)C(=O)N1CCC[C@H]1C(=O)N[C@H](C=O)CC(=O)O [Example 20g]
< 0.01 | – | – | – | 3 to 4.8 | CS(=O)(=O)CC[C@H](NC(=O)c1nccc2ccccc12)C(=O)N1CCC[C@H]1C(=O)N[C@H](C=O)CC(=O)O [Example 20h]
< 0.01 | – | – | – | < 3 | CC[C@H](NC(=O)c1cc(Cl)c(O)c(Cl)c1)C(=O)N1CCC[C@H]1C(=O)N[C@H](C=O)CC(=O)O [Example 20m]
< 0.01 | – | > 1 | – | – | CC(C)[C@H](NC(=O)c1ccccc1)C(=O)N1CC(c2ccccc2)[C@H]1C(=O)N[C@H](C=O)CC(=O)O (stereo partly drawn) [Example 24a]
< 0.01 | – | – | – | – | CC(C)[C@H](NC(=O)c1nccc2ccccc12)C(=O)N1CC(c2ccccc2)[C@H]1C(=O)N[C@H](C=O)CC(=O)O (stereo partly drawn) [Example 24c]
< 0.01 | – | – | – | – | CC(C)[C@H](NC(=O)c1nccc2ccccc12)C(=O)N1CC[C@H](C)[C@H]1C(=O)N[C@H](C=O)CC(=O)O [Example 26c]
< 0.01 | – | – | – | – | CC(C)[C@H](NC(=O)c1nccc2ccccc12)C(=O)N1C2CCCCC2C[C@H]1C(=O)N[C@H](C=O)CC(=O)O (stereo partly drawn) [Example 26e]
< 0.01 | – | – | – | – | CC(C)[C@H](NC(=O)c1nccc2ccccc12)C(=O)N1[C@@H](c2ccccc2)CC[C@H]1C(=O)N[C@H](C=O)CC(=O)O [Example 26f]
0.01 to 1 | – | – | – | – | C[C@H](NC(=O)c1ccc(N)c(Cl)c1)C(=O)N1CC(F)(F)C[C@H]1C(=O)N[C@H](C=O)CC(=O)O [Example 27a]
< 0.01 | – | > 1 | – | – | CC(C)[C@H](NC(=O)c1ccccc1)C(=O)N[C@@H](C)C(=O)N[C@H](C=O)CC(=O)O [Example 29a] (Bz-Val-Ala-Asp-aldehyde)
< 0.01 | – | – | – | – | C[C@H](NC(=O)[C@@H](NC(=O)c1nccc2ccccc12)C(C)(C)C)C(=O)N[C@H](C=O)CC(=O)O [Example 29g]
< 0.01 | – | 0.01 to 1 | – | – | COc1ccc(C(=O)NC(C(=O)N2N=C(C(C)(C)C)SC2C(=O)NC(C=O)CC(=O)O)C(C)C)cc1 (stereo not drawn) [Example 46b]
< 0.01 | – | – | – | – | C[C@H](NC(=O)c1cccc2c1-c1ccccc1C2=O)C(=O)N1CCC[C@H]1C(=O)N[C@H](C=O)CC(=O)O [Example 122a]
< 0.01 | – | – | – | > 4.8 | COc1c(Cl)cc(C(=O)N[C@@H](C)C(=O)N2CCC[C@H]2C(=O)N[C@H](C=O)CC(=O)O)cc1Cl [Example 122c, 3-({1-[2-(3,5-Dichloro-4-methoxy-benzoylamino)-propionyl]-pyrrolidine-2-carbonyl}-amino)-4-oxo-butyric acid]
< 0.01 | – | > 1 | 0.01 to 1 | < 3 | CC(=O)Nc1ccc(C(=O)N[C@@H](C)C(=O)N2CCC[C@H]2C(=O)N[C@H](C=O)CC(=O)O)cc1Cl [Example 122f, 3-({1-[2-(4-Acetylamino-3-chloro-benzoylamino)-propionyl]-pyrrolidine-2-carbonyl}-amino)-4-oxo-butyric acid]
< 0.01 | – | > 1 | 0.01 to 1 | – | C[C@H](NC(=O)c1cc(Cl)c(O)c(Cl)c1)C(=O)N1CCC[C@H]1C(=O)N[C@H](C=O)CC(=O)O [Example 122k, 3-({1-[2-(3,5-Dichloro-4-hydroxy-benzoylamino)-propionyl]-pyrrolidine-2-carbonyl}-amino)-4-oxo-butyric acid]
